US20230348564A1, “ANTI-CANCER PROTEINS” (UNICHEM LABORATORIES LTD, priority 2020, published 2023)

How the values were obtained:
[1] = tested on: VEGF release in PANC-1 cells; assay: VEGF secretion in cancer cells (Human VEGF ELISA); format: cell-based; conditions: 24 h
Description: (§1) The cell lines were maintained in DMEM+10% […] (heat inactivated) at 37° C. with 5% CO2, and 95% humidity. Cells were counted and plated in 6-well plates for 24 h at a density of 0.5×10^6 cells/well. The cells were incubated overnight under growth conditions as described above so as to allow cell recovery and exponential growth. Cells were treated with each test item at different concentrations for 24h in serum free media. Doxorubicin was used as positive control. Secreted levels of VEGF were determined in supernatants after 24 hours using Human VEGF ELISA kit (R&D systems) as per manufacturer's protocol. Change in VEGF levels corresponding to each treatment was calculated using the following formula: […]

[2] = tested on: VEGF release in MDA-MB-231 cells; assay: VEGF secretion in cancer cells (Human VEGF ELISA); format: cell-based; conditions: 24 h
Description: as §1

[3] = tested on: Glioma (C6); assay: cytotoxicity in Brain Tumor Cell lines by MTT assay; format: cell-based, Rat; conditions: 0.1 Mm-100 μM, 72 h
Description: The SEQ ID NO. […] Untreated cells were used as control. […] Cells were incubated for 3 h at 37° C.

[4] = tested on: Meningioma (IOMM-Lee); assay: as above; conditions: 0.1 Mm-100 μM, 72 h
[5] = tested on: MCF-7 (Human breast adenocarcinoma); assay: MTT cytotoxicity assay; conditions: SEQ ID NO. 2 80 μg/ml, doxorubicin 75 μM; 48h
Description: (§2) All the cancer cell lines were procured from National Centre for Cell Science, Pune (India). Cell lines were maintained under conditions as mentioned in Table 23. The cell lines were sub-cultured by trypsinization followed by splitting the cell suspension into fresh flasks and supplementing with fresh culture medium.
(§3) All the cell lines were grown in specified media at 37° C. with 95% Humidity and 5% CO2.
(§4) The cells were trypsinized, counted by Trypan blue method in Neuebauer's Chamber and plated in wells of flat bottom 96-well plate at the density corresponding to 10×10^3 cells/well/200 μL medium.
(§5) Following overnight incubation, the media in the plate was replenished with 180 μL/well and then the cells were treated with 20 μL of each test item at concentrations ranging from 2.5 μg/mL-80 μg/mL in triplicates, so that the total volume in each well is 200 μL.
(§6) The untreated cells served as negative control. The cells were incubated with the test items or positive control for a time period of 48h. Following incubation, the cell cytotoxicity was estimated using MTT assay. Absorbance was measured at 540 nm. The percentage cytotoxicity corresponding to each treatment was calculated using the formula:
(§7) % Cytotoxicity=(1−X/R)*100
(§8) Where X=absorbance of wells corresponding to treated cells R=absorbance of untreated cells (cells maintained in growth medium only)
(§9) IC50 value was calculated using Graph-Pad Prism version 4.01 software.

[6] = tested on: PBMCs (Peripheral blood mononuclear cells); assay: MTT cytotoxicity assay; conditions: SEQ ID NO. 2 80 μg/ml, doxorubicin 75 μM; 48h
Description: as §2, §3, §4, §5, §6, §7, §8, §9

[7] = tested on: MIA PaCa-2 (Human pancreatic carcinoma); assay: MTT cytotoxicity assay; conditions: SEQ ID NO. 2 80 μg/ml, doxorubicin 75 μM; 48h
Description: as §2, §3, §4, §5, §6, §7, §8, §9

[8] = tested on: MDA-MB-453 (Human breast metastatic carcinoma); assay: MTT cytotoxicity assay; conditions: SEQ ID NO. 2 80 μg/ml, doxorubicin 75 μM; 48h
Description: as §2, §3, §4, §5, §6, §7, §8, §9

[9] = tested on: T24 (Human Bladder Cancer); assay: MTT cytotoxicity assay; conditions: SEQ ID NO. 2 80 μg/ml, doxorubicin 75 μM; 48h
Description: as §2, §3, §4, §5, §6, §7, §8, §9

[10] = tested on: T-47D (Human mammary gland ductal carcinoma); assay: MTT cytotoxicity assay; conditions: SEQ ID NO. 2 80 μg/ml, doxorubicin 75 μM; 48h
Description: as §2, §3, §4, §5, §6, §7, §8, §9

[11] = tested on: MDA-MB-231 (Human breast adenocarcinoma); assay: MTT cytotoxicity assay; conditions: SEQ ID NO. 2 80 μg/ml, doxorubicin 75 μM; 48h
Description: as §2, §3, §4, §5, §6, §7, §8, §9

[12] = tested on: PANC-1 (Human pancreatic epitheloid carcinoma); assay: MTT cytotoxicity assay; conditions: SEQ ID NO. 2 80 μg/ml, doxorubicin 75 μM; 48h
Description: as §2, §3, §4, §5, §6, §7, §8, §9

[13] = tested on: TNF-α; assay: biomarker levels in IOMM-Lee by multiplex analysis; format: cell-based, Human
Text: (§10) Effect of SEQ ID No 2 on the expression of following 7 biomarkers were estimated in Human Meningioma cell line (IOMM-Lee) using multiplex analysis: TNF-alpha, VEGF, VEGFR2, HGF, HGFR/c-MET, PDGF-BB, and Contactin-1. Levels of another marker, Notch-1 were also estimated by ELISA in the same cell line. These 8 biomarkers play very crucial role in the pathogenesis and progression of Brain Tumor. […] Supernatants were collected and the levels of these 8 markers were investigated.

[14] = tested on: HGFR/c-MET; assay: biomarker levels in IOMM-Lee by multiplex analysis; format: cell-based, Human
Text: as §10

[15] = tested on: HGF; assay: biomarker levels in IOMM-Lee by multiplex analysis; format: cell-based, Human
Text: as §10

[16] = tested on: PDGF-BB; assay: biomarker levels in IOMM-Lee by multiplex analysis; format: cell-based, Human
Text: as §10

[17] = tested on: VEGFR2; assay: biomarker levels in IOMM-Lee by multiplex analysis; format: cell-based, Human
Text: as §10

[18] = tested on: Contactin-1; assay: biomarker levels in IOMM-Lee by multiplex analysis; format: cell-based, Human
Text: as §10

[19] = tested on: VEGF; assay: biomarker levels in IOMM-Lee by multiplex analysis; format: cell-based, Human
Text: as §10

[20] = tested on: Notch-1; assay: biomarker levels in IOMM-Lee by ELISA; format: cell-based, Human; conditions: 1 μM
Text: as §10

## COc1cccc2c1C(=O)c1c(O)c3c(c(O)c1C2=O)C[C@@](O)(C(=O)CO)C[C@@H]3O[C@H]1C[C@H](N)[C@H](O)[C@H](C)O1 [Doxorubicin, reference compound]
[1]; 10 μM
  Average absorbance at 450 nM: 0.506
  Percentage decrease in VEGF levels: 73.6%
  VEGF level: 269.7 pg/mL
[1]; 100 μM
  Average absorbance at 450 nM: 0.483
  Percentage decrease in VEGF levels: 75.1%
  VEGF level: 254.6 pg/mL
[2]; 10 μM
  Average absorbance at 450 nM: 0.176
  Percentage decrease in VEGF levels: 89.2%
  VEGF level: 49.9 pg/mL
[2]; 100 μM
  Average absorbance at 450 nM: 0.145
  Percentage decrease in VEGF levels: 93.7%
  VEGF level: 29.0 pg/mL
[3]
  % of cytotoxicity: 57.8%-86.3%
[4]
  % of cytotoxicity: 46.6%-54.5%
[5]
  Cytotoxicity at highest concentration tested: 64.9%
[6]
  Cytotoxicity at highest concentration tested: 32.0%
[7]
  Cytotoxicity at highest concentration tested: 63.9%
[8]
  Cytotoxicity at highest concentration tested: 71.4%
[9]
  Cytotoxicity at highest concentration tested: 54.4%
[10]
  Cytotoxicity at highest concentration tested: 51.1%
[11]
  Cytotoxicity at highest concentration tested: 50.2%
[12]
  Cytotoxicity at highest concentration tested: 65.1%
[13]; 1 μM
  Percentage inhibition on levels of TNF-α: 67.8%
[13]; 10 μM
  Percentage inhibition on levels of TNF-α: 42.3%
[14]; 1 μM
  Percentage inhibition on levels of HGFR/c-MET: 45.5%
[14]; 10 μM
  Percentage inhibition on levels of HGFR/c-MET: 55.2%
[15]; 1 μM
  Percentage inhibition on levels of HGF: 45.3%
[15]; 10 μM
  Percentage inhibition on levels of HGF: 84%
[16]; 1 μM
  Percentage inhibition on levels of PDGF-BB: 12%
[16]; 10 μM
  Percentage inhibition on levels of PDGF-BB: 100%
[17]; 1 μM
  Percentage inhibition on levels of VEGFR2: 38.2%
[17]; 10 μM
  Percentage inhibition on levels of VEGFR2: 50.1%
[18]; 1 μM
  Percentage inhibition on levels of Contactin-1: 50%
[18]; 10 μM
  Percentage inhibition on levels of Contactin-1: 23.3%
[19]; 1 μM
  Percentage inhibition on levels of VEGF: 53%
[19]; 10 μM
  Percentage inhibition on levels of VEGF: 93.4%
[20]
  Percentage inhibition on levels of Notch-1: 8%
